In patent US6921821B2, “Antagonists of melanin concentrating hormone receptor” (Abbott Laboratories, priority 2002, dated 2005):

Molecular target: T1, murine MCHR (Mus musculus, UniProt Q8JZL2)
T1 construct: expressed in transfected cells; host or cells: HEK293
Assay: Assay for release of intracellular calcium (FLIPR, Fluo-4), inhibition of MCH-induced Ca++ flux
Format: cell-based
Conditions: test compound at a dose of 10 μM, HEK293 cells expressing the murine MCHR, read-out: inhibition of MCH (MCH induced Ca++ flux / fluorescence)
Description: Assay for Release of Intracellular Calcium
Activation of the melanin concentrating hormone receptor (MCHR) by MCH induces the release of Ca^++ from intracellular stores. This intracellular calcium release is measured using a fluorometric imaging plate reader (FLIPR™, Molecular Devices Corp.) in conjunction with the Ca^++-sensitive dye Fluo-4. Release of Ca^++ from intracellular stores causes an increase in fluorescence of the dye that is proportional to Ca^++ concentration. Briefly, the assays are performed as follows. HEK293 cells expressing the murine MCHR are plated overnight at 50,000 cells/well in 96-well plates. The following day, culture medium is removed and replaced with 100 μl/well of D-PBS (+glucose and sodium pyruvate) containing 2.5 μM Fluo-4AM (Molecular Probes), 0.01% Pluronic F-127 and 2.5 mM probenecid. Cells are loaded with the Fluo-4 dye for at least one hour at room temp. After loading, the cells are washed gently to remove extracellular dye and 100 μl of D-PBS (+glucose and sodium pyruvate) is added to each well. Test compounds are prepared at 40 μM in 4% DMSO. The cell plate is placed in the FLIPR™ and 50 μl/well of test compound is delivered. The calcium signal is followed for 3 minutes to assay for potential agonist activity by the test compounds. Then 50 μl/well of 12 nM mouse MCH (in D-PBS containing 0.1% BSA) is added and the ligand-induced calcium signal is followed for an additional 3 minutes. Antagonist activity as determined by the test compounds ability to inhibit MCH induced Ca^++ flux is calculated as % inhibition as described by the following formula: % inhibition=[1−((fTC−fB)÷(fMCH−fB))]×100, where fTC=MCH-induced fluorescence in the presence of test compound; fMCH=MCH-induced fluorescence in the absence of test compound; and fB=Baseline fluorescence.
MCH (3 nM) usually elicits a response of 30,000-40,000 relative fluorescence units (RFU) with a baseline of about 1000 RFU. Fluo-4 fluorescence is measured at 488 nm, with an exposure of 0.40 sec. and F-stop=2.0 and the laser set at 0.40-0.60 W constant light output.

T1 sequence (Q8JZL2 whole entry): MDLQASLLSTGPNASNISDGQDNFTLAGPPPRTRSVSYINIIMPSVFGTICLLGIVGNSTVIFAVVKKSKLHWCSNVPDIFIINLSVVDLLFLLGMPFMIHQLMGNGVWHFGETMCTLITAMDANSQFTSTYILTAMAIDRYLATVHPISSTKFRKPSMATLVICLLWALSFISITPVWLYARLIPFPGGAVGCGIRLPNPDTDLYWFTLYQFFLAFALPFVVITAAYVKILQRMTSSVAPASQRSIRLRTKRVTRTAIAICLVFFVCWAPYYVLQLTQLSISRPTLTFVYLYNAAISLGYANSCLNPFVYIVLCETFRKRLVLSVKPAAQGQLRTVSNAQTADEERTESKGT

Inhibition at 10 µM, ≥ 50%:
CC(c1ccc2ncccc2c1)N1CCC(Nc2cc(=O)oc3ccc(Cl)cc23)CC1 (racemic) [II-106, 6-Chloro-4-[1-(1-quinolin-6-yl-ethyl)-piperidin-4-ylamino]-chromen-2-one]
CC(=O)c1ccc(C(C)N2CCC(Nc3cc(=O)oc4ccc(Cl)cc34)CC2)cc1 (racemic) [II-116, 4-{1-[1-(4-acetylphenyl)-ethyl]-piperidin-4-ylamino}-6-chlorochromen-2-one]
COc1ccc([C@@H](C)N2CCC(Nc3cc(=O)oc4ccc(Cl)cc34)CC2)cc1F (stereo in doubt) [II-45, 6-Chloro-4-{1-[1-(3-fluoro-4-methoxy-phenyl)-ethyl]-piperidin-4-ylamino}-chromen-2-one]
COc1ccc2oc(=O)cc(N[C@H]3CCN(Cc4ccc5c(c4)OCO5)C[C@H]3C)c2c1 (stereo in doubt) [II-53, 4-(1-Benzo[1,3]dioxol-5-ylmethyl-3-methyl-piperidin-4-ylamino)-6-methoxy-chromen-2-one]
COc1ccc2oc(=O)cc(N[C@@H]3CCN(Cc4ccc5c(c4)OCO5)C[C@H]3C)c2c1 (stereo in doubt) [II-72, 4-(1-Benzo[1,3]dioxol-5-ylmethyl-3-methyl-piperidin-4-ylamino)-6-methoxy-chromen-2-one]
O=c1cc(NC2CCN(Cc3ccc4ccccc4c3)CC2)c2cc(Cl)ccc2n1Cc1cccnc1 [Compound V-1, 6-Chloro-4-(1-naphthalen-2-ylmethyl-piperidin-4-ylamino)-1-pyridin-3-ylmethyl-1H-quinolin-2-one]
O=c1cc(NC2CCN(Cc3ccc4c(c3)OCO4)CC2)c2cc(Cl)ccc2n1Cc1ccccn1 [Compound V-2, 4-(1-Benzo[1,3]dioxol-5-ylmethyl-piperidin-4-ylamino)-6-chloro-1-pyridin-2-ylmethyl-1H-quinolin-2-one]
O=c1cc(NC2CCN(Cc3ccc4c(c3)OCO4)CC2)c2cc(Cl)ccc2n1Cc1ccccc1 [Compound V-3, 4-(1-Benzo[1,3]dioxol-5-ylmethyl-piperidin-4-ylamino)-1-benzyl-6-chloro-1H-quinolin-2-one]
O=c1cc(NC2CCN(Cc3ccc4c(c3)OCO4)CC2)c2cc(Cl)ccc2n1Cc1ccncc1 [Compound V-4, 4-(1-Benzo[1,3]dioxol-5-ylmethylpiperidin-4-ylamino)-6-chloro-1-pyridin-4-ylmethyl-1H-quinolin-2-one]
O=c1cc(NC2CCN(Cc3ccc4ccccc4c3)CC2)c2cc(Cl)ccc2n1Cc1ccncc1 [Compound V-5, 6-Chloro-4-(1-naphthalen-2-ylmethyl-piperidin-4-ylamino)-1-pyridin-4-ylmethyl-1H-quinolin-2-one]
CCn1c(=O)cc(NC2CCN(Cc3ccc4ccccc4c3)CC2)c2cc(Cl)ccc21 [Compound V-6, 6-Chloro-1-ethyl-4-(1-naphthalen-2-ylmethyl-piperidin-4-ylamino)-1H-quinolin-2-one]
O=c1cc(NC2CCN(Cc3ccc4c(c3)OCO4)CC2)c2cc(Cl)ccc2n1CC(F)(F)F [Compound V-7, 4-(1-Benzo[1,3]dioxol-5-ylmethylpiperidin-4-ylamino)-6-chloro-1-(2,2,2-trifluoroethyl)-1H-quinolin-2-]
COc1ccc2c(c1)c(NC1CCN(Cc3ccc4c(c3)OCO4)CC1)cc(=O)n2C [Compound V-8, 4-(1-Benzo[1,3]dioxol-5-ylmethyl-piperidin-4-ylamino)-6-methoxy-1-methyl-1H-quinolin 2-one]
COc1ccc2c(c1)c(NC1CCN(Cc3ccc4ccccc4c3)CC1)cc(=O)n2C [Compound V-9, 6-Methoxy-1-methyl-4-(1-naphthalen-2-ylmethyl-piperidin-4-ylamino)-1H-quinolin-2-one]
O=c1cc(NC2CCN(Cc3ccc4occc4c3)CC2)c2cc(Cl)ccc2n1Cc1ccncc1 [Compound V-10, 4-(1-Benzofuran-5-ylmethyl-piperidin-4-ylamino)-6-chloro-1-pyridin-4-ylmethyl-1H-quinolin-2-one]
O=c1cc(NC2CCN(Cc3ccc4c(c3)OCO4)CC2)c2cc(Cl)ccc2[nH]1 [Compound V-11, 4-(1-Benzo[1,3]dioxol-5-ylmethyl-piperidin-4-ylamino)-6-chloro-1H-quinolin-2-one]
COc1ccc2c(c1)c(NC1CCN(Cc3ccc4occc4c3)CC1)cc(=O)n2C [Compound V-12, 4-(1-Benzofuran-5-ylmethyl-piperidin-4-ylamino)-6-methoxy-1-methyl-1H-quinolin-2-one]
CCc1ccc2c(c1)c(NC1CCN(Cc3ccc4c(c3)OCO4)CC1)cc(=O)n2C [Compound V-13, 4-(1-Benzo[1,3]dioxol-5-ylmethyl-piperidin-4-ylamino)-6-ethyl-1-methyl-1H-quinolin-2-one]
COc1ccc2c(c1)c(NC1CCN(C/C=C/c3ccccc3)CC1)cc(=O)n2C [Compound V-14, 6-Methoxy-1-methyl-4-[1-(3-phenyl-allyl)-piperidin-4-ylamino]-1H-quinolin-2-one]
CCc1ccc2c(c1)c(NC1CCN(Cc3ccc4c(c3)OCO4)CC1)cc(=O)n2CC [Compound V-17, 4-(1-Benzo[1,3]dioxol-5-ylmethyl-piperidin-4-ylamino)-1,6-diethyl-1H-quinolin-2-one]
CCc1ccc2c(c1)c(NC1CCN(C(C)c3ccc4c(c3)OCO4)CC1)cc(=O)n2CC (stereo not shown) [Compound V-18, 4-[1-(1-Benzo[1,3]dioxol-5-yl-ethyl)-piperidin-4-ylamino]-1,6-diethyl-1H-quinolin-2-one]
O=c1cc(NC2CCN(Cc3ccc4c(c3)OCO4)CC2)c2cc(Cl)ccc2n1Cc1cc[n+]([O-])cc1 [Compound V-19, 4-(1-Benzo[1,3]dioxol-5-ylmethyl-piperidin-4-ylamino)-6-chloro-1-(1-oxy-pyridin-4-ylmethyl)-1H-quinolin-2-one]
CCc1ccc2c(c1)c(NC1CCN(Cc3ccc4ccccc4c3)CC1)cc(=O)n2C [Compound V-20, 6-Ethyl-1-methyl-4-(1-naphthalen-2-ylmethyl-piperidin-4-ylamino)-1H-quinolin-2-one]
Cc1ccc2c(c1)c(NC1CCN(Cc3ccc4ccccc4c3)CC1)cc(=O)n2C [Compound V-22, 1,6-Dimethyl-4-(1-naphthalen-2-ylmethyl-piperidin-4-ylamino)-1H-quinolin-2-one]
N#Cc1c(NC2CCN(Cc3ccc4occc4c3)CC2)c2cc(Cl)ccc2[nH]c1=O [Compound V-23, 4-(1-Benzofuran-5-ylmethyl-piperidin-4-ylamino)-6-chloro-2-oxo-1,2-dihydro-quinoline-3-carbonitrile]
